Reference: patent US20240120519A1, “NON-AQUEOUS REDOX FLOW BATTERIES” (ENI S.P.A., priority 2020, published 2024)
Where two headings read alike, the source gives them in different places.

Experiments:
[1] = Cyclic voltammetry measurements (oxidation-reduction potentials); format: physicochemical; conditions: for E°′ ACN (V vs Fc/Fc^+): acetonitrile; for E°′ ACN (V vs Fc/Fc^+) / E°′ PC (V vs Fc/Fc^+): 0.1 M TBABF4, glassy carbon working electrode, 25° C., normalised to Fc/Fc^+; for E°′ PC (V vs Fc/Fc^+): propylene carbonate
Method: Cyclic voltammetry measurements were carried out in a hemi-cell with a three-electrode configuration, with glassy carbon working electrode, platinum counter electrode and silver/silver chloride (Ag/AgCl) reference electrode. The oxidation-reduction potentials E°′Ox/Red were derived from the position of the forward peak (Epf) and the return peak (Epr):
and the values were normalised with respect to the intersolvent ferrocene/ferrocenium (Fc/Fc^+) couple.
Evaluations were carried out on an Autolab PGSTAT 128N analytical instrument at scan rates of 10, 20, 50, 70, 100, and 200 mV/s. All evaluations were carried out in triplicate at room temperature (25° C.). For the purpose, use was made of solutions containing: • benzothiadiazole (1) (Aldrich) (5×10^−3 M) and tetrabutylammonium tetrafluoro-borate (TBABF4) (Aldrich) (0.1 M) in acetonitrile (Aldrich) (non-aqueous liquid negative electrolyte of the negative compartment) (BTD); • benzothiadiazole (1) (Aldrich) (5×10^−3 M) and tetrabutylammonium tetrafluoro-borate (TBABF4) (Aldrich) (0.1 M) in propylene carbonate (Aldrich) (non-aqueous liquid negative electrolyte of the negative compartment) (BTD); • 4,7-di[2-(propyloxycarbonylethyloxy)phenyl]-benzothiadiazole [compound (2) obtained in Example 7] (5×10^−3 M) and tetrabutylammonium tetrafluoroborate (TBABF4) (Aldrich) (0.1 M) in acetonitrile (Aldrich) (non-aqueous liquid negative electrolyte of the negative compartment) (BTD); • 4,7-di[2-(propyloxycarbonylethyloxy)phenyl]-benzothiadiazole [compound (2) obtained in Example 7] (5×10^−3 M) and tetrabutylammonium tetrafluoroborate (TBABF4) (Aldrich) (0.1 M) in propylene carbonate (Aldrich) (non-aqueous liquid negative electrolyte of the negative compartment) [BTD (2)]; • 4,7-di[2-methoxycarbonylethyloxy)phenyl]-benzothiadiazole [compound (3) obtained in Example 1] (5×10^−3 M) and tetrabutylammonium tetrafluoroborate (TBABF4) (Aldrich) (0.1 M) in acetonitrile (Aldrich) (non-aqueous liquid negative electrolyte of the negative compartment) [BTD (3)]; • 4,7-di[2-(methoxycarbonylethyloxy)phenyl]-benzothiadiazole [compound (3) obtained in Example 1] (5×10^−3 M) and tetrabutylammonium tetrafluoroborate (TBABF4) (Aldrich) (0.1 M) in propylene carbonate (Aldrich) (non-aqueous liquid negative electrolyte of the negative compartment) [BTD (3)]; • 4,7-di[2-(2-(2-methoxyethoxy)ethoxy)phenyl]-benzothiadiazole [compound (4) obtained in Example 3] (5×10^−3 M) and tetrabutylammonium tetrafluoroborate (TBABF4) (Aldrich) (0.1 M) in acetonitrile (Aldrich) (non-aqueous liquid negative electrolyte of the negative compartment) [BTD (4)]; • 4,7-di[2-(2-(2-methoxyethoxy)ethoxy)phenyl]-benzothiadiazole [compound (4) obtained in Example 3] (5×10^−3 M) and tetrabutylammonium tetrafluoroborate (TBABF4) (Aldrich) (0.1 M) in propylene carbonate (Aldrich) (non-aqueous liquid negative electrolyte of the negative compartment) [BTD (4)]; • 4,7-di[2,6-di(propyloxycarbonylethyloxy)phenyl]-benzothiadiazole [compound (5) obtained in Example 4] (5×10^−3 M) and tetrabutylammonium tetrafluoroborate (TBABF4) (Aldrich) (0.1 M) in acetonitrile (Aldrich) (non-aqueous liquid negative electrolyte of the negative compartment) [BTD (5)]; • 4,7-di[2,6-di(propyloxycarbonylethyloxy)phenyl]-benzothiadiazole [compound (5) obtained in Example 4] (5×10^−3 M) and tetrabutylammonium tetrafluoroborate (TBABF4) (Aldrich) (0.1 M) in propylene carbonate (Aldrich) (non-aqueous liquid negative electrolyte of the negative compartment) [BTD (5)]; • 4,7-di[2,5-di(propyloxycarbonylethyloxy)phenyl]-benzothiadiazole [compound (6) obtained in Example 5] (5×10^−3 M) and tetrabutylammonium tetrafluoroborate (TBABF4) (Aldrich) (0.1 M) in acetonitrile (Aldrich) (non-aqueous liquid negative electrolyte of the negative compartment) [BTD (6)]; • 4,7-di[2,5-di(propyloxycarbonylethyloxy)phenyl]-benzothiadiazole [compound (6) obtained in Example 5] […]

[2] = Non-aqueous redox flow battery (RFB) charge/discharge tests
Method: Charge-discharge tests were carried out using an electrochemical cell with a Teflon® membrane (DuPont), having a surface area equal to approximately 0.8 cm^2, placed between two platinum electrodes (Methrohm) having a surface area equal to approximately 0.07 cm^2. The electrochemical cell was then assembled and sealed in a container containing argon (Ar).
For the purpose, use was made of solutions containing: • 4,7-di[2-(propyloxycarbonylethyloxy)phenyl]-benzothiadiazole [Compound (2) obtained in Example 7]: (1×10^−3 M) and tetrabutylammonium tetrafluoroborate (TBABF4) (Aldrich) (0.1 M) in acetonitrile (Aldrich) (non-aqueous liquid negative electrolyte of the negative compartment), degassed with argon (Ar) and subjected to electrolysis in order to obtain benzothiadiazole in reduced form [(BTD (2)·^−)]; • tetrakisacetonitrile copper(I) tetrafluoroborate [Cu(NCCH3)4·BF4] (1×10^−3 M) and tetrabutylammonium tetrafluoroborate (TBABF4) (Aldrich) (0.1 M) in acetonitrile (Aldrich) (non-aqueous liquid positive electrolyte of the positive compartment) (Cu triflate), degassed with argon (Ar).
6 ml of the above solutions were introduced into the respective compartments.
The test was carried out using a potentiostat/galvanostat Autolab PGSTAT 128N (Metrohom) at room temperature (25° C.).
Charge and discharge curves were carried out to assess the performance of the electrolytes in the cell. […]

[3] = Stability tests in cyclic voltammetry; format: physicochemical; conditions: 1×10^−3 M, 0.1 M TBABF4 in acetonitrile
Method: Stability tests were carried out using the same electrochemical cell as in Example 9.
For the purpose, use was made of solutions containing: • 4,7-di[2-(propyloxycarbonylethyloxy)phenyl]-benzothiadiazole [Compound (2) obtained in Example 2 or 7] (1×10^−3 M) and tetrabutylammonium tetrafluoroborate (TBABF4) (Aldrich) 0.1 M in acetonitrile (Aldrich) (non-aqueous liquid negative electrolyte of the negative compartment).

Row | SMILES | E°′ ACN (V vs Fc/Fc^+) [1] [V vs Fc/Fc^+] | E°′ PC (V vs Fc/Fc^+) [1] [V vs Fc/Fc^+] | potential difference (E°) in open circuit ([1]; solution in acetonitrile, E°=(E°1)−(E°2) against Cu triflate (0.62 V)) [V] | stability over 150 successive redox cycles [3] | stability during charge/discharge (oxidation-reduction cycles) [2] | stability during charge/discharge (oxidation-reduction cycles) ([2]; 1×10^−3 M in acetonitrile, 0.1 M TBABF4, Teflon membrane, charge 2.5 V, discharge 0.5 V, 240 seconds each, 25° C.)
1 | CCOC(=O)CCCOc1ccc(OCCCC(=O)OCC)c(-c2ccc(-c3cc(OCCCC(=O)OCC)ccc3OCCCC(=O)OCC)c3nsnc23)c1 [Compound (6)] | −1.88 | −1.83 | – | – | – | –
2 | CCOC(=O)CCCOc1cccc(OCCCC(=O)OCC)c1-c1ccc(-c2c(OCCCC(=O)OCC)cccc2OCCCC(=O)OCC)c2nsnc12 [Compound (5)] | −2.00 | −1.95 | – | – | – | –
3 | CC#N.CC#N.CC#N.CC#N.F[B-](F)(F)F.[Cu+] [Cu, tetrakisacetonitrile copper(I) tetrafluoroborate, reference compound] | – | – | – | – | – | good stability during oxidation-reduction cycles
4 | O=S(=O)([O-])C(F)(F)F.O=S(=O)([O-])C(F)(F)F.[Cu+2] [Cu triflate, copper(II) trifluoromethanesulphonate, reference compound] | 0.62 | 0.43 | – | – | – | –

More lines, main results first:

Row | E°′ ACN (V vs Fc/Fc^+) [1] [V vs Fc/Fc^+] | E°′ PC (V vs Fc/Fc^+) [1] [V vs Fc/Fc^+] | potential difference (E°) in open circuit ([1]; solution in acetonitrile, E°=(E°1)−(E°2) against Cu triflate (0.62 V)) [V] | stability over 150 successive redox cycles [3] | SMILES | stability during charge/discharge (oxidation-reduction cycles) [2] | stability during charge/discharge (oxidation-reduction cycles) ([2]; 1×10^−3 M in acetonitrile, 0.1 M TBABF4, Teflon membrane, charge 2.5 V, discharge 0.5 V, 240 seconds each, 25° C.)
5 | −1.90 | −1.85 | – | – | COCCOCCOc1ccccc1-c1ccc(-c2ccccc2OCCOCCOC)c2nsnc12 [Compound (4), 4,7-di[2-(2-(2-methoxyethoxy)ethoxy)phenyl]-benzothiadiazole] | – | –
6 | −1.91 | −1.84 | 2.53 | the cycles are superimposable | CCOC(=O)CCCOc1ccccc1-c1ccc(-c2ccccc2OCCCC(=O)OCC)c2nsnc12 [Compound (2)] | good stability during oxidation-reduction cycles | –
7 | −1.86 | −1.82 | – | – | CCOC(=O)COc1ccccc1-c1ccc(-c2ccccc2OCC(=O)OCC)c2nsnc12 [Compound (3)] | – | –
8 | −1.93 | −1.88 | – | – | CCOC(=O)CCCOc1ccc(-c2ccc(-c3ccc(OCCCC(=O)OCC)cc3OCCCC(=O)OCC)c3nsnc23)c(OCCCC(=O)OCC)c1 [Compound (7)] | – | –
